Laboratory results reported in patent EP4458804A1, “METHOD FOR PRODUCING AN OBJECT, PHENALEN-1-ONE COMPOUND AND USE THEREOF” (TriOptoTec GmbH, priority 2023, dated 2024).

Columns and labels:
[1] = Incorporation of photocatalysts into TPU films versus process time, absorption spectroscopy against blank film (Beispiele 7a-9b); assay type: physicochemical; details: Rezeptur 1
Description: Im nächsten Schritt wurde die Verwendbarkeit der verschiedene Photokatalysatorklassen, ausgewählt aus Phenalen-1-on-Derivaten, Curcumin-Derivaten und Porphycen-Derivaten, mit unterschiedlichen Eigenschaften - von neutral unpolar bis ionisch polar - auf Ihre Verwendbarkeit und Wirkung im Verfahren untersucht.
Zur Beurteilung der optimalen Prozesszeit bei Einsatz der Photokatalysatoren, wurden TPU Folienstücke nach Beschreibung in Beispiel 4 zu je 1, 2, 5 und 10 min in den Imprägnierlösungen behandelt, gegebenenfalls auch 30 und 60 min bei undeutlichen Ergebnissen.
Als Basisformulierung wurde Rezeptur 1 nach Beispiel 2 verwendet.
Nach der angegebenen Prozesszeit wurden die Folie entnommen, mit Wasser gewaschen und für 1h bei 40°C getrocknet/abgelüftet.
Die Folien wurden durch Absorptionsspektroskopie gegen ein Blank-Folienstück direkt vermessen, beim Maximum der Absorption des Photokatalysators. Dabei ergaben sich in Abhängigkeit der Prozesszeit folgende Werte, die in den Tabellen 40 bis

[2] = Leaching test A: screening immersion 24 h, UV-VIS of supernatant (Beispiel 10 A); assay type: physicochemical; design: Abs. nach Auswaschen: unit not given here; details: medium Wasser; for Berechneter Verlust in %: Rezeptur 1 nach Beispiel 1; for Abs. nach Auswaschen: Rezeptur 1 nach Beispiel 1, supernatant
Description: Um das Auswaschen der verschiedenen Farbstoffe in den Kunststofffolien zu beurteilen, wurde ein Immersionstest in deionisiertem Wasser mit einem pH-Wert von (6 ± 1) (oder gegebenenfalls anderen Lösungsmitteln) und einer Wassertemperatur von (22 ± 3) °C für 24 Stunden durchgeführt.
Dazu wurde ein Folienstück definierter Größe (3 cm x 3 cm) imprägniert (nach Rezeptur 1, Beispiel 1) und anschließend für 24 Stunden in eine definierte Menge deionisiertem Wasser (12,0 mL) gegeben und durch eine Schüttelplatte in Bewegung gehalten. Nach der angegeben Immersionszeit wurde die Folie entnommen und der Überschuss im UV-VIS Spektrometer vermessen, um die ausgewaschene Menge an Farbstoff zu bestimmen. Die Menge wird durch die definierte Größe der Folie und definierte Flüssigkeitsmenge auf einen Quadratzentimeter zurückgerechnet.
Dieser Immersionstest diente dazu, das Auswaschverhalten verschiedener Farbstoffe aus verschiedenen Kunststofffolien zu beurteilen. Weiter sollte er dabei helfen, verschiedene Farbstoffklassen oder verschiedene Farbstoffderivate einer Farbstoffklasse bezüglich dieser Charakteristik miteinander zu vergleichen.
Die zugeschnittenen Folien werden in einem geeigneten Behälter vollständig mit dem Prüfmedium (typischerweise deionisiertes Wasser) bedeckt. Anschließend wird der Behälter zugedeckt und auf die Schüttelplatte aufgebracht. Bei geringer Geschwindigkeit der Platte wird für 24 Stunden gewartet. Nach der Immersion wurden 3 mL des Überstandes durch Absorptionsspektroskopie vermessen.
Die Auswertung erfolgte über das Verhältnis der max. Absorptionswerte einer reinen Farbstofflösung definierter Konzentration und des vermessenen Überstandes. Die Ergebnisse sind in Tabelle 50 dargestellt. Tabelle 50: Auswaschverhalten verschiedener Photokatalysatoren nach Immersionstest A

S.aureus ATCC 6538 [3] = experiment: Antibacterial activity of impregnated films, modified ISO 22196 with illumination (Beispiele 11-16, 25); assay type: cell-based
Source text: Die Bestimmung der antimikrobiellen Aktivität erfolgte nach einer modifizierten Version der ISO 22196:2011-08 ("Messung von antibakterieller Aktivität auf Kunststoff- und anderen porenfreien Oberflächen", Ausgabedatum: 2011-08).
Bei der Testdurchführung wurde ein dünner Flüssigkeitsfilm, in dem die Bakterien enthalten sind (1,25 x 10^4 /cm^2), direkt auf die Probenkörper (3 x 3 cm) aufgebracht. Direkt nach Beimpfung wurden von der Nullprobe die Bakterien von den Probenkörperoberflächen mittels Ultraschall und Vortexen abgelöst und die Keimzahl (KBE (engl. CFU), Kolonie-bildende Einheit) bestimmt (t0-Wert).
Nach 4h wurden überlebende Bakterien von den Probenkörperoberflächen mittels Ultraschall und Vortexen abgelöst und die Keimzahl bestimmt (t4-Wert).
Im Unterschied zu der in der ISO 22196:2011-08 beschreibenen Methode wurde das Inokulum nicht mit einer Folie abgedeckt und die Inkubationszeit wurde von 24 auf 4 Stunden reduziert. Weiterhin wurden die Probenkörper der Proben 3 und 4 mit Licht der Intensität 20mW/cm2 für 10min belichtet, um eine biozide Wirkung nach Bestrahlung mit elektromagnetischer Strahlung zu bestimmen.
Verwendet wurden TPU Folienstücke, die nach dem in Beispiel 4 beschriebenen Verfahren mit Rezeptur 1 behandelt wurden. Rezeptur 1 wurde hergestellt nach Beispiel 2. […] Der Test wurde in Anlehnung an ISO 22196 nach oben beschriebener Methode durchgeführt.
TPU-Folienstücke wurden ebenfalls nach dem in Beispiel 4 beschriebenen Verfahren mit verschiedenen Rezepturen behandelt, die gemäß Beispiel 2 hergestellt wurden. Die Farbstoffkonzentration in der Imprägnierlösung betrug jeweils 1 mM F-24b. Der Test wurde in Anlehnung an ISO 22196 nach oben beschriebener Methode durchgeführt.
Die Farbstoffkonzentration in der Imprägnierlösung betrug jeweils 1 mM.
Die Photokatalysator-Konzentration von F-24b wurde variiert.
Es wurde ein Bakterientest in Anlehnung an ISO 22196 nach oben beschriebener Methode durchgeführt.

[4] = Comparative examples 23-25: impregnation of unsuitable plastics or with a fluorescent dye, visual evaluation; assay type: physicochemical
Description: Die Farbstoffkonzentration in der Imprägnierlösung betrug jeweils 1 mM bei Phenalen-1-on- und Curcuminderivaten, 0,1 mM bei Prophycenderivaten.
Es wurden 0,2 mm starke Polycarbonatfolien eingesetzt und mit Imprägnierlösungen enthaltend die Photokatalysatoren F-24b, F-64a oder F-73 behandelt.
Es wurden TPU Folien eingesetzt und mit einer Imprägnierlösung enthaltend den Farbstoff 2-Chloro-6-(3-hydroxypropylamino)-1-phenalenon (CAS 113722-81-9) behandelt.

S.aureus ATCC 6538 [5] = experiment: Antibacterial activity of impregnated films, modified ISO 22196 with illumination (Beispiele 11-16, 25); assay type: cell-based; details: Beispiel 14; TPU film; Rezeptur 1 (nach Beispiel 1); 1 mM photocatalyst in impregnation solution; light 20mW/cm2 10min
[6] = Two-component system (kit of parts): impregnation of TPU films, visual colouring and resistance to rubbing/washing (Beispiel 6a/6b); assay type: physicochemical; details: TPU Folien; for Abreiben / Auswaschen der Färbung: feuchter Schwamm, Wasser
Source text: Um eine Mehrkomponenten-System bereitzustellen, bei dem vorzugsweise flüchtigere Hilfskomponenten, die gegebenenfalls regelmäßiger im Prozess ergänzt werden müssen, in einer separaten Komponente bereitgestellt werden können, wurde zunächst folgendes 2K-System getestet.
Grundkomponente (A): Eine Mischung aus 40,0% w/w Aceton, 30,0% w/w Isopropanol und […] w/w Wasser wurden homogen vermengt. Die Mischung war dicht verschlossen > 12 Monate bei Raumtemperatur lagerbar.
Zusatzkomponente (B): Eine Mischung aus 3,0% w/w Phenoxyethanol, 3,0% w/w EDTA und 0,1 bis 2,0 % Photokatalysator in Wasser wurden homogen verrührt. Die Mischung war dicht verschlossen in dunklen Flaschen > 6 Monate bei Raumtemperatur lagerbar.
Beide Lösungen wurden vor dem Prozess zu gleichen Teilen gemischt, gefolgt von einer 1:5 Verdünnung mit Wasser. Nach guter Durchmischung war die Lösung gebrauchsfertig.
Bei F-64a und F-73 war eine schwache Gelb- bzw.
Grundkomponente (A) enthielt eine Mischung aus 30,0% w/w Dimethylsuccinat, 33,0% w/w 1,2-Propandiol, 12,0% w/w Tween 20 und 25,0 % Wasser.
Zusatzkomponente (B) enthielt eine Mischung aus 2,0 Gew.-% Phenoxyethanol, 2,0 Gew.-% EDTA und 0,1 Gew.-% bis 1,6 Gew.-% Photokatalysator, jeweils bezogen auf das Gesamtgewicht der Zusatzkomponente (B), wobei die entsprechenden Bestandteile in Wasser gelöst wurden und anschließend homogen verrührt wurden.
Die Komponenten wurden vor Gebrauch im Verhältnis A zu B 2:1 gemischt, gefolgt von einer 1:1 Verdünnung mit Wasser. Nach guter Durchmischung war die Lösung gebrauchsfertig.

[7] = TPU Folie, Beispiel 7d, Tabelle 43
[8] = Beispiel 7a neutral Phenalen-1-one, TPU film, process time 1 min, absorption at photocatalyst maximum vs blank film
[9] = Beispiel 7a neutral Phenalen-1-one, TPU film, process time 2 min
[10] = Beispiel 7a neutral Phenalen-1-one, TPU film, process time 5 min
[11] = Beispiel 7a neutral Phenalen-1-one, TPU film, process time 10 min
[12] = TPU Folie, Beispiel 8a, Tabelle 44
[13] = Beispiel 9a neutral Porphycenderivate mit Hydroxyfunktion, TPU film, process time 10 min

## 9-Acetoxy-2,7,12,17-tetra-(beta-methoxyethyl)porphycen [F-66]
[1]; Beispiel 9a, TPU film, process time 1 min, used as 0,1 mM Lösung
  Abs. 1 min: 0,008
[1]; Beispiel 9a, TPU film, process time 2 min, used as 0,1 mM Lösung
  Abs. 2 min: 0,020
[1]; Beispiel 9a, TPU film, process time 5 min, used as 0,1 mM Lösung
  Abs. 5 min: 0,044
[1]; Beispiel 9a, TPU film, process time 10 min, used as 0,1 mM Lösung
  Abs. 10 min: 0,058
[2]; plastic TPU
  Berechneter Verlust in %: 2,0%
  Abs. nach Auswaschen: 0,021

## O=C1C(Cl)=Cc2ccc(NCCCO)c3cccc1c23 [2-Chloro-6-(3-hydroxypropylamino)-1-phenalenon, reference compound]
S.aureus ATCC 6538 [3]; TPU Folien dyed with the fluorescent dye (Beispiel 25)
  photodynamische Inaktivierung von S.aureus gegenüber den Kontrollen: keine photodynamische Inaktivierung
[4]; TPU Folien, 30 min Einwirkzeit
  Färbung der Folie: homogen pink gefärbte Folien
[4]; TPU Folien, Abreiben mit feuchtem Tuch, Waschen mit Wasser
  Entfernbarkeit der Färbung: weder durch Abreiben mit einem feuchten Tuch noch durch Waschen mit Wasser entfernt

## O=C1C(S(=O)(=O)O)=Cc2cccc3cccc1c23 [F-01a]
S.aureus ATCC 6538 [5]
  Log10 Reduktion Hauptprobe: 1,4 ± 0,4 log10

## O=C1C=Cc2cc(S(=O)(=O)O)cc3cccc1c23 [F-01b]
[1]; [7]
  Abs. 10 min: 0,008
  Abs. 30 min: 0,011
  Abs. 60 min: 0,065

## CCOC1=CC(=O)c2cccc3cccc1c23 [F-02]
[1]; [7]
  Abs. 1 min: 0,125
  Abs. 2 min: 0,229
  Abs. 5 min: 0,475
  Abs. 10 min: 0,590
[2]; plastic Surlyn
  Berechneter Verlust in %: 2,7%
  Abs. nach Auswaschen: 0,009

## NCCCOC1=CC(=O)c2cccc3cccc1c23 [F-08]
[1]; [8]
  Abs. 1 min: 0,003
[1]; [9]
  Abs. 2 min: 0,015
[1]; [10]
  Abs. 5 min: 0,016
[1]; [11]
  Abs. 10 min: 0,023
S.aureus ATCC 6538 [3]; Beispiel 14, TPU film, Rezeptur 1 (nach Beispiel 1), 1 mM photocatalyst in impregnation solution, light 20mW/cm2 10min
  Log10 Reduktion Hauptprobe: 4,0 ± 0,3 log10

## NCCOc1ccc2c3c(cccc13)C=CC2=O [F-09]
[1]; [8]
  Abs. 1 min: 0,227
[1]; [9]
  Abs. 2 min: 0,158
[1]; [10]
  Abs. 5 min: 0,123
[1]; [11]
  Abs. 10 min: 0,263

## NCCCOc1ccc2cccc3c2c1C(=O)C=C3 [F-10]
[1]; [8]
  Abs. 1 min: 0,044
[1]; [9]
  Abs. 2 min: 0,011
[1]; [10]
  Abs. 5 min: 0,062
[1]; [11]
  Abs. 10 min: 0,087

## O=C1C(COc2ccc(O)cc2)=Cc2cccc3cccc1c23 [F-12]
[1]; [8]
  Abs. 1 min: 0,108
[1]; [9]
  Abs. 2 min: 0,349
[1]; [10]
  Abs. 5 min: 0,411
[1]; [11]
  Abs. 10 min: >1

## COC(=O)C(C)Oc1ccc(OCC2=Cc3cccc4cccc(c34)C2=O)cc1 (stereo not shown) [F-19a]
[1]; [8]
  Abs. 1 min: >1
[1]; [9]
  Abs. 2 min: >1
[1]; [10]
  Abs. 5 min: >1
[1]; [11]
  Abs. 10 min: >1

## CC(Oc1ccc(OCC2=Cc3cccc4cccc(c34)C2=O)cc1)C(=O)O (stereo not shown) [F-20a]
[1]; [8]
  Abs. 1 min: 0,020
[1]; [9]
  Abs. 2 min: 0,014
[1]; [10]
  Abs. 5 min: 0,020
[1]; [11]
  Abs. 10 min: 0,035

## NCCOc1ccc(/C=C/C(=O)CC(=O)/C=C/c2ccc(OCCN)cc2)cc1 [F-64a]
[6]; 2K-System Beispiel 6a (Aceton/Isopropanol)
  Imprägnierung / Färbung der Folie: schwache Gelb- bzw. Blaufärbung der Folie
[6]; 2K-System Beispiel 6a
  Abreiben / Auswaschen der Färbung: weder mit einem feuchten Schwamm abreiben noch mit Wasser auswaschen ließ
[6]; 2K-System Beispiel 6b (Dimethylsuccinat/1,2-Propandiol/Tween 20)
  Imprägnierung / Färbung der Folie: schwache Gelb- bzw. Blaufärbung der Folie
[6]; 2K-System Beispiel 6b
  Abreiben / Auswaschen der Färbung: weder mit einem feuchten Schwamm abreiben noch mit Wasser auswaschen ließ
[1]; [12]
  Abs. 10 min: 0,55
[4]; 0,2 mm starke Polycarbonatfolien, 60 min Einwirkzeit
  Verfärbung: keine Verfärbung
S.aureus ATCC 6538 [5]
  Log10 Reduktion Hauptprobe: 2,6 ± 1,7 log10

## NCCOc1ccc(/C=C/C(=O)C(C(=O)/C=C/c2ccc(OCCN)cc2)c2ccccc2)cc1 [F-64c]
[1]; [12]
  Abs. 5 min: 0,61
  Abs. 10 min: >1

## COc1cc(/C=C/C(=O)CC(=O)/C=C/c2cc(Br)c(OCCN)c(OC)c2)cc(Br)c1OCCN [F-65]
[1]; [12]
  Abs. 1 min: 0,08
  Abs. 10 min: 0,87
S.aureus ATCC 6538 [5]
  Log10 Reduktion Hauptprobe: 1,3 ± 0,1 log10

## COCCC1=Cc2nc1ccc1[nH]c(cc1CCOC)c1nc(c(OC)cc3[nH]c2cc3CCOC)C(CCOC)=C1 [F-68]
[1]; [13]
  Abs. 10 min: 1,01
[1]; Beispiel 9a neutral Porphycenderivate mit Hydroxyfunktion, TPU film, process time 30 min
  Abs. 30 min: >1
[1]; Beispiel 9a neutral Porphycenderivate mit Hydroxyfunktion, TPU film, process time 60 min
  Abs. 60 min: >1

## COCCC1=Cc2nc1ccc1[nH]c(cc1CCOC)c1nc(c(OCCCN)cc3[nH]c2cc3CCOC)C(CCOC)=C1 [F-71]
[1]; Beispiel 9a neutral Porphycenderivate mit Hydroxyfunktion, TPU film, process time 1 min
  Abs. 1 min: 0
[1]; Beispiel 9a neutral Porphycenderivate mit Hydroxyfunktion, TPU film, process time 2 min
  Abs. 2 min: 0
[1]; Beispiel 9a neutral Porphycenderivate mit Hydroxyfunktion, TPU film, process time 5 min
  Abs. 5 min: 0,032
[1]; [13]
  Abs. 10 min: 0,04
[1]; Beispiel 9b cationic Porphycenderivate, TPU film, process time 10 min
  Abs. 10 min: 0,023
[1]; Beispiel 9b cationic Porphycenderivate, TPU film, process time 30 min
  Abs. 30 min: 0,062
[1]; Beispiel 9b cationic Porphycenderivate, TPU film, process time 60 min
  Abs. 60 min: 0,114

## COCCC1=Cc2nc1ccc1[nH]c(cc1CCOC)c1nc(c(OCCC(NC(=O)OC(C)(C)C)C(=O)O)cc3[nH]c2cc3CCOC)C(CCOC)=C1 (stereo not shown) [F-78b]
[1]; [13]
  Abs. 10 min: 0,670
